row,Compound,melting point [°C]
1,COC(=O)c1cc2cc(OC)c(OC)cc2c(-c2ccnc(-n3c(=O)cc(C(=O)N4CCOCC4)c4ccccc43)c2)c1C(=O)OC,247 to 249
2,O=C(O)/C=C/c1ccc(C(=O)NCC2CCCO2)cc1 (stereo not given),215
3,O=C(O)c1ccc(-c2ccc(NS(=O)(=O)C(F)(F)F)cc2)[nH]c1=O,> 260
4,CCN1CCCC1CNC(=O)c1cc(S(=O)(=O)N(C)C)cc2c1OCCO2 (stereo not given),146 to 148
5,Clc1ccc2nc(Cl)nc(-c3ccccc3)c2c1,159 to 160
6,COC(=O)c1ccc(Cl)cc1NC(=O)CSc1ccc([N+](=O)[O-])cc1,134 to 137
7,Cn1c(NCCCCCC(=O)O)c(NC=O)c(=O)n(C)c1=O,152 to 153
8,Cc1ccccc1CNCCNCc1ccccc1C,51 to 52
9,O=C(c1ccc(Nc2ccnc3cc(C(F)(F)F)ccc23)cc1)N1CCN(c2c(Cl)c(Cl)nc(Cl)c2Cl)CC1,222 to 224
10,Nc1cc2c(cc1[N+](=O)[O-])OCO2,199 to 201
11,COc1cc(-c2ccccc2)nc(SCC(=O)O)n1,157 to 159
12,COC(=O)CCCOc1cc([N+](=O)[O-])c(COc2ccccc2)cc1OC,96 to 98
13,O=c1c2c(CCc3ccccc3[N+](=O)[O-])n[nH]c2c2cccnc2n1-c1ccccc1,333 to 335
14,CC(C)(C)CC(=O)c1ccc(OCC(=O)O)c(Cl)c1Cl,145 to 146
15,CCN1C(=O)NC(Cc2c[nH]c3ccccc23)C1CCc1cc(C(F)(F)F)cc(C(F)(F)F)c1 (stereo not given),228 to 230
16,O=C(Cc1ccc(O)c([N+](=O)[O-])c1)N[C@H]1C[C@H](C(=O)O)Nc2cc(Cl)cc(Cl)c21 (relative stereo),245 to 247
17,C=COCCONC(=O)c1cc(F)c(F)c(F)c1Nc1ccc(I)cc1Cl,115 to 116
18,COc1ccc(CSc2nnc(-c3ccnc(NC(=O)CCc4ccccc4)c3)o2)cc1C#N,176 to 177
19,CNC1Cc2ccccc2C1Nc1ccccc1 (stereo not given),121 to 122
20,COc1cccc(-c2cc3cnc(N)nc3nc2N)c1,284 to 286
21,COC(=O)/C=C/c1ccc(OCc2nc(-c3ccccc3)oc2C)nc1,116 to 117
22,COC1(c2cc(F)cc(S(=O)(=O)c3ccc4c(c3)CC/C4=N\O)c2)CCOCC1,225 to 226
23,NCCC(O)c1ccccc1 (stereo not given),92 to 94
24,CC1=CC(c2cccs2)(C(C)C(=O)O)Nc2ccccc21 (stereo not given),228 to 229
25,CC(=O)Nc1ccc(OCCN2CC=C(c3ccc(F)cc3)CC2)cc1,96 to 98

row,Compound,melting point [°C]
1,COC(=O)C(Cc1ccccc1)Oc1ccc2cc(CNC(=O)c3ccc(C4CCCCC4)cc3)ccc2c1Br (stereo not given),160 to 161
2,O=C(O)C(Cc1ccc(O)cc1)NC(=O)C(CS)C(F)(F)F (stereo not given),184 to 187
3,CS(=O)(=O)Nc1cccc(Nc2nc(NCc3ncc[nH]3)c3nc[nH]c3n2)c1,216 to 220
4,Nc1nc(Nc2ccccc2)sc1C(=O)c1cccnc1,227 to 228
5,O=c1c(-c2ccccc2)c[nH]n1-c1cccc(C(F)(F)F)c1,210 to 213
6,CN1CCC2(CC1)c1ccccc1Cc1ccccc12,132 to 134
7,CCN(CC)CC(O)CNC(=O)c1c(OCc2ccccc2)c2ccccc2n1-c1ccccc1 (stereo not given),80 to 81
8,COc1cc(OC)c2c(C)c(CCN3CCN(c4ccccc4O)CC3)c(=O)oc2c1,164 to 165
9,CC(C)OC(=O)c1cc(-n2c(=O)c(F)c(CF)n(C)c2=O)c(F)cc1Cl,85 to 89
10,CCN1c2ccccc2NC(=O)c2cscc21,201 to 202
11,Cc1cc(C#N)cc(C(=O)c2c(C(C)C)c(=O)[nH]c(=O)n2C(C)C)c1,278 to 280
12,O=C(Nc1ccc(N2CCCC2=O)cc1)OCc1ccccc1,174
13,COc1ccccc1-c1nc(-c2cccnc2)c(C)[nH]1,198 to 200
14,CCSc1ccc2c(c1)C(=O)Cc1ccccc1N2C,54 to 55
15,O=C(O)CC1(CCCCCCCCC2(CC(=O)O)CC2)CC1,101
16,COc1cc2ncc(O[C@H]3CC[C@@H](OC(C)=O)CC3)nc2cc1OC,150 to 152
17,COc1ccc(Cl)cc1C(=O)NCCC1CCN(S(=O)(=O)NC(=S)NC(C)C)CC1,145 to 147
18,CC(C)n1cc(-c2nc(C(N)=O)c(N)nc2-c2cccc(Cl)c2)ccc1=O,233
19,CC(C)(O)Cn1c(Oc2ccc(-n3c4ncccc4n4ccnc34)cc2)nc2ccccc21,208 to 211
20,O=C1CC2(CCCCC2Cc2ccccc2)SCCN1 (stereo not given),130 to 135
21,CCCN(c1ccncc1)n1ccc2cc(OC(=O)NC(C)C)ccc21,131 to 133
22,Cn1c(C(F)(F)F)cc(=O)n(-c2ccc(Cl)c3c2OC(C)(C)C3)c1=O,152 to 153
23,FCCOc1cccc(CBr)c1OCCF,99 to 100
24,COc1cc(-n2ccc(C(F)(F)F)cc2=O)c(F)cc1C#N,194 to 196
25,CCOCCOc1nc(NC(C)=O)nc2ccc(Cl)nc12,185

row,Compound,melting point [°C]
1,O=C1CCCC(c2ccc(F)cc2)CN1 (stereo not given),158 to 160
2,CCN(c1cccc2cc(C3=NCCS3)[nH]c12)S(=O)(=O)c1cccs1,206 to 207
3,O=Cc1coc2cc3c(cc2c1=O)OCO3,232 to 233
4,OCc1ccc(-c2ccccc2)cn1,86 to 87
5,CCOC(=O)c1ncn(-c2nncs2)c1N,181 to 183
6,CNC(=O)[C@H](O)C(C)(C)C,60 to 62
7,CCOC(=O)C1=C(C)NC(=O)N(C(=O)OCC)C1c1cccc([N+](=O)[O-])c1 (stereo not given),107 to 108
8,CCOC(=O)c1ncn2c1CN(Cc1ccc(OC)cc1OC)C(=O)c1cc(F)ccc1-2,159 to 160
9,COc1cccc(CC(=O)O)c1OCCCc1cn(-c2ccccn2)nc1C(C)C,102 to 104
10,COCCCN1CCC(CNC(=O)c2cc(Cl)c(N)nc2OC)CC1,103
11,CCC12CCC3C4CCCC=C4CCC3C1CCC2O (stereo not given),118 to 120
12,N#Cc1c(N2CCc3ccccc3CC2)[nH]c(=S)[nH]c1=O,> 200
13,CCCCCCCCCC(=O)Nc1ccccc1,65 to 66
14,Cc1nc(-c2ccc(O)cc2)oc1C,202 to 203
15,OC1CSC(Oc2ccc(-c3ccco3)cc2)C(O)C1O (stereo not given),200
16,"CC(=O)OC(C)c1ccc(-c2ccc(OCc3ccccc3)cc2)cc1 (single isomer, unassigned; (+))",137
17,COC(=O)Cc1n[nH]c(C)c1[N+](=O)[O-],132 to 133
18,CCCCCCCCCCCCCC(=O)N[C@H](C(=O)O)C(C)C,88 to 89
19,CCCc1c2nc(C(=O)OCC)cc(NC)c2cc2c(=O)cc(C(=O)OCC)oc12,235 to 237
20,Cc1nc(-c2ccccc2)nc(-c2ccc(O)c(N)c2)c1C(=O)N1CCN(C)CC1,129 to 131
21,CCCCCCC[C@H]1O[C@H]1C(=O)O,53 to 55
22,Cc1cc2c(s1)Nc1ccccc1N=C2N1CCN[C@@H](COc2ccccc2)C1,64 to 81
23,O=C(Nc1cc(-c2cc(Nc3ccc(N4CCNCC4=O)cn3)c(=O)[nH]n2)ccc1F)c1cc2c(s1)CCCC2,285 to 287
24,CN(C)C(=O)c1ccc(Cl)c(C#N)c1,193
25,CC(=O)OC1CSC(Oc2ccc3oc(C)nc3c2)C(OC(C)=O)C1OC(C)=O (stereo not given),168

row,Compound,melting point [°C]
1,Cc1c(-c2ccccc2)nc2ccccc2c1C(=O)N[C@@H](C)C1CCCCC1,177 to 180
2,CC(C)(C)OC(=O)C1CC1c1ccc(-c2ncn(-c3ccc(OC(F)(F)F)cc3)n2)cc1 (stereo not given),100 to 101
3,O=c1ncc(Cl)cn1COCc1cnsn1,106
4,CS(=O)(=O)c1ccc(-c2cnn(-c3ccc([N+](=O)[O-])s3)c(=O)c2-c2ccc(F)cc2)cc1,252 to 253
5,O=c1[nH]c2ccccc2n1CC1CCCN(CC(O)C2COc3ccccc3O2)C1 (stereo not given),154
6,FC(F)(F)c1cc(Br)cc(OCc2ccc3ccccc3c2)c1,68 to 70
7,Cc1cc2c(c(C)c1NC(=O)CC(C)(C)C)C(c1ccc(C(C)C)cc1)CS2 (stereo not given),151 to 152
8,CN(C)c1cccc2c(S(=O)(=O)NCC(=O)N3CCCC3C(=O)NC(C=O)CCCN(C(=N)N)C(=O)OCc3ccccc3)cccc12 (stereo not given),105 to 115
9,CC1(C)CCC(C)(C)c2cc(NC(=O)c3ccccc3)ccc21,146 to 148
10,COC1c2ccccc2C(c2ccc([N+](=O)[O-])cc2)=NN(c2nc(=O)n(C)s2)C1(C)OC (stereo not given),262 to 263
11,COC(=O)c1ccc(C(=O)O)cc1C,134 to 136
12,CN1CCN(CCO)Cc2ccc(Nc3ncc(Cl)c(N[C@@H]4CCCC[C@H]4NS(C)(=O)=O)n3)cc21,181 to 190
13,CCOC(=O)CCCn1c(Nc2cnc(OC)cc2C)nc2c(Cl)ccc(C(CC)CC)c21,140 to 142
14,COC(=O)C1CC(=O)N(Cc2ccccc2)C1c1c(Cl)cccc1Cl (stereo not given),97 to 102
15,Cc1oc(-c2ccccc2)nc1COc1ccccc1CO,155 to 156
16,Cc1ncnc(C)c1C(=O)N1CC2CN(CCC(NC(=O)C3CCCC3)c3ccccc3)CC2C1 (stereo not given),48 to 49
17,CNC(=O)C(=O)CCCCCON=Cc1ccc(-c2ccccc2)cc1,86 to 87
18,CC(C)COP(C)(=O)c1ccccc1S(N)(=O)=O (stereo not given),50 to 52
19,CCCn1cc(C(=O)c2cccc3cc(OC)ccc23)c2ccccc21,139 to 140
20,CCOC(=O)c1ncn2c1CN=C(NCC(OC)OC)c1ccccc1-2,121 to 122
21,CCCCCCCCCCCCOC(=O)Cc1nc(-c2ccc(Cl)cc2)oc1-c1ccco1,69.5 to 71
22,CC(C)C(=O)N1CCC(C2(c3cccc(-c4ccccc4)c3)N=C(N)N(C)C2=O)CC1 (stereo not given),131 to 134
23,COc1ccc(C(=O)N2CCC(N3CCc4ccccc43)c3ccccc32)cc1OC (stereo not given),121 to 123
24,CC(C)(C)c1cc(-c2nc(CN3CCCC3)no2)cc(C(C)(C)C)c1O,100 to 102
25,C=CCCOc1ccc(C[C@H](NC(=O)OC(C)(C)C)C(=O)N[C@@H](CC(C)C)C(=O)N[C@@H](CC=C)C(=O)OC)cc1,166 to 168
